Results from paper PMC6616128, “Liquiritin, as a Natural Inhibitor of AKR1C1, Could Interfere With the Progesterone Metabolism” (Frontiers in Physiology, 2019).
Where a chain is given by its changes, count along the chain named. Like-named read-outs stand apart in the source and are kept apart here.

Experiments:
AKR1C1 = target: T1, AKR1C1 (Homo sapiens, UniProt Q04828); experiment: Enzyme activity (NADPH) assay with s-tetralol, recombinant GST-AKR1C1; type: biochemical; set-up: made in house; host or cells: Escherichia coli JM109; details: for enzyme activity: CON 192.295568; for inhibition at 2 µM: read-out: % inhibition;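 as to all read-outs here: GST-fused AKR1C1 expressed in E. coli and purified by glutathione affinity, control wells received DMSO instead of compound, duplicate samples from a single experiment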
T1 sequence (Q04828 1-323): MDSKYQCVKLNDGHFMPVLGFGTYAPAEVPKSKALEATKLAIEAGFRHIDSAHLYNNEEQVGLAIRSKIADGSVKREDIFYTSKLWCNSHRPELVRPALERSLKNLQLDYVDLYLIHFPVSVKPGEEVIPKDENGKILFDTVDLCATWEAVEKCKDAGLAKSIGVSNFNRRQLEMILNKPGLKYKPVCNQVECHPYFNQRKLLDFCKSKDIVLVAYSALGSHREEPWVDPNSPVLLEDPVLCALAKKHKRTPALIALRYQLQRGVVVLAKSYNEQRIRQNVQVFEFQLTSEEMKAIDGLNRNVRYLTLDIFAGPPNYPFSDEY
Method: GST-tagged recombinant AKR1C isoforms expressed JM109 was grown in Luria-Bertani broth (100 μg⋅ml-1 ampicillin, pH = 7.0) at 37°C with orbital shaking at 220 rpm. When cells achieved an OD600 nm between 0.4 and 0.6, 0.3 mM final concentration of isopropyl β-D-1-thiogalactopyranoside (IPTG) was added to the cultures and incubated for an additional 12 h at 25°C. Cells were harvested by centrifugation at 8000 g for 10 min, and the cell pellets were stored at -80°C for storage. The pellets were resuspended in 1 × PBS, pH = 7.4 and lysed by ultrasonication at ice-cold temperature using an UH-03 union instrument. The purification of glutathione-S-transferase (GST)-fusion AKR1C1, AKR1C2, and AKR1C3 were then carried out using ÄKTA systems from GE Healthcare as described in Handbook. The recombinant proteins were eluted in 50 mM Tris–HCl (pH = 8.0) with 20 mM reduced glutathione, fresh preparedly. Protein concentrations were determined using the Bradford protein assay kit. All proteins were aliquoted and stored at -80°C containing 20% glycerol.
(§1) To screen for the indicated inhibitor, the assay mixture was added with additional DMSO or 2 μM compounds. […] The inhibition patterns were determined by fitting initial velocity and inhibitor concentration into inhibition models using Graphpad Prism 6.0. All inhibition data were obtained from single experiments, with samples conducted in duplicate.
Firstly, we overexpressed recombinant human AKR1C in E. coli in the form of a GST-fusion protein, and then purified it by affinity chromatography on glutathione-Sepharose.
To screen for the inhibitors of AKR1C1, we developed a readily accessible indirect NADPH generating-based assay that can be used for high-throughput inhibitors screening. […] Wells were included containing enzyme and no inhibitor or 2 μM inhibitor.

recombinant AKR1C3 = target: T2, recombinant AKR1C3 (Homo sapiens, UniProt P42330); details: GST-AKR1C3; S-tetralol/NADP+
T2 sequence (P42330 1-323): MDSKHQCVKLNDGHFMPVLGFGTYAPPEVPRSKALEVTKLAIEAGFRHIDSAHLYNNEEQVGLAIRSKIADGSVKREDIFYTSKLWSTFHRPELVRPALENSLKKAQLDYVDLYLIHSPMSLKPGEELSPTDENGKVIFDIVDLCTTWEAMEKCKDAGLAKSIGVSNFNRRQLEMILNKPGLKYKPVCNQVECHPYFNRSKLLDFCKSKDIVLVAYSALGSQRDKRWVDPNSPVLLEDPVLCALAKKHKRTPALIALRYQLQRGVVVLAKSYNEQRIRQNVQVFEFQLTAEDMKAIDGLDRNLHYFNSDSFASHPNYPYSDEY
Method: (§2) Protein concentrations were determined using the Bradford protein assay kit.
as §1
(§3) Each experiment was repeated three times and the differences among means were significant determined by Student t-text (^∗p < 0.05; ^∗∗p < 0.01; ^∗∗∗p < 0.001).

recombinant AKR1C2 = target: T3, recombinant AKR1C2 (Homo sapiens, UniProt P52895); experiment: Enzyme activity (NADPH) assay with s-tetralol, recombinant GST-AKR1C2; type: biochemical; details: GST-AKR1C2; S-tetralol/NADP+
T3 construct: made in house; host or cells: Escherichia coli JM109
T3 sequence (P52895 1-323): T1 sequence (Q04828 1-323) with T38V, R47H, L54V, C87S, V151M, R170H, Q172L
Method: as §2, §1, §3

[1] = 2 μM compound, Supplementary Table 1
[2] = 2 μM compound, Supplementary Table 1, CON 0.0122
[3] = 2 μM compound, Supplementary Table 1, CON = 1
[4] = 2 μM compound, Supplementary Table 1, CON = 1, read-out: ratio (activity relative to CON)

% inhibition (AKR1C1; [1]) | slope (AKR1C1; [2]) | enzyme activity (AKR1C1; [1]) | ratio (activity relative to CON) (AKR1C1; [3]) | remaining activity at 2 µM (AKR1C1; [4]) | inhibition at 2 µM (AKR1C1; [1]) | Molecule | other results
 | 0.0122 | 192.3856 nmol/min/mg |  | 100% | -0.05% | CC1(C)O[C@H]1COc1c2ccoc2cc2oc(=O)ccc12 [Oxypeucedanin] | 
-1.55% | 0.0124 | 195.2678 nmol/min/mg | 1.0155 |  |  | COc1c2c(cc3oc(CO[C@@H]4O[C@H](CO)[C@@H](O)[C@H](O)[C@H]4O)cc(=O)c13)O[C@H](C(C)(C)O)C2 [Prim-O-glucosylcimifugin] | 
 | 0.0133 | 209.2284 nmol/min/mg |  | 109% | -8.81% | COc1cc2c(c(OC)c1OC)-c1c(cc(OC)c(OC)c1OC)C[C@H](C)[C@H](C)C2 [Schisandrin A] | 
-12.27% | 0.0137 | 215.8934 nmol/min/mg | 1.1227 |  |  | COc1cc2c(c(OC)c1OC)-c1c(cc(OC)c(OC)c1OC)C[C@](C)(O)[C@@H](C)C2 [Schisandrol A] | 
 | 0.0137 | 215.6683 nmol/min/mg |  | 112% | -12.2% | COc1cc2c(c(OC)c1OC)-c1c(cc3c(c1OC)OCO3)C[C@H](C)[C@@](C)(O)C2 [Schisandrol B] | 
-23.91% | 0.0151 | 238.2754 nmol/min/mg | 1.2391 |  |  | COc1cc2c(c(OC)c1OC)-c1c(cc3c(c1OC)OCO3)CC(C)C(C)C2 (stereo not drawn) [Schizandrin B] | 
 | 0.0133 | 209.3185 nmol/min/mg |  | 109% | -8.85% | COc1ccc(-c2cc(=O)c3c(OC)c(OC)c(OC)c(OC)c3o2)cc1 [Tangeretin] | 
 | 0.007214 | 113.7111 nmol/min/mg |  | 59.1% | 40.9% | COc1ccc2c(c1)CC=C(CO)c1cc3c(cc1-2)OCO3 [Tenuifolin] | 
 | 0.00272 | 42.8725 nmol/min/mg |  | 22.3% | 77.7% | COc1c(O)cc(O)c2c(=O)cc(-c3ccccc3)oc12 [Wogonin] | remaining activity at 2 µM (AKR1C1; 2 μM compound, Figure 1A, read-out: % Enzyme Activity): 22.3%; remaining activity at 2 µM (AKR1C1; 2 μM compound, text on Figure 1A, read-out: inhibitory effect over AKR1C1 enzyme activity (% inhibition)): 22.3%
-8.88% | 0.0133 | 209.3635 nmol/min/mg | 1.0888 |  |  | COc1c(O[C@@H]2O[C@H](C(=O)O)[C@@H](O)[C@H](O)[C@H]2O)cc(O)c2c(=O)cc(-c3ccccc3)oc12 [Wogonoside] | 
4.75% | 0.0116 | 183.1536 nmol/min/mg | 0.9525 |  |  | Pseuginsenoside F11 | 
31.38% | 0.008371 | 131.9499 nmol/min/mg | 0.6862 |  |  | Salvianolic acid B | 
-8.57% | 0.0132 | 208.778 nmol/min/mg | 1.0857 |  |  | Schisantherin A | 

More lines, now with the values behind:

Molecule | % inhibition (AKR1C1; [1]) | slope (AKR1C1; [2]) | enzyme activity (AKR1C1; [1]) | ratio (activity relative to CON) (AKR1C1; [3]) | remaining activity at 2 µM (AKR1C1; [4]) | inhibition at 2 µM (AKR1C1; [1]) | other results
COc1cc(C(=O)OCCCCN=C(N)N)cc(OC)c1O.Cl [Leonurine hydrochloride] | 40.77% | 0.007226 | 113.8912 nmol/min/mg | 0.5923 |  |  | 
O=c1c2cc(O)c(O)cc2oc2cc(O)c([C@@H]3O[C@H](CO)[C@@H](O)[C@H](O)[C@H]3O)c(O)c12 [Mangiferin] |  | 0.009429 | 148.6125 nmol/min/mg |  | 77.3% | 22.7% | 
COc1ccc(-c2cc(=O)c3c(OC)c(OC)c(OC)c(OC)c3o2)cc1OC [Nobiletin] |  | 0.0127 | 200.1315 nmol/min/mg |  | 104% | -4.07% | 
C[C@H]1CC[C@@H]2N(C1)C[C@H]1[C@@H]3C[C@H]4[C@@H](C[C@H](O)[C@H]5C[C@@H](O)CC[C@@]54C)[C@@H]3CC[C@@H]1[C@]2(C)O [Peimine] | 4.66% | 0.0116 | 183.3338 nmol/min/mg | 0.9534 |  |  | 
COc1cc(C(=O)O[C@H]2[C@@H]3C=CO[C@@H](O[C@@H]4O[C@H](CO)[C@@H](O)[C@H](O)[C@H]4O)[C@@H]3[C@@]3(CO)O[C@@H]23)ccc1O [Picroside Ⅱ] |  | 0.006957 | 109.658 nmol/min/mg |  | 57% | 43% | 
O=c1ccc2cc3ccoc3cc2o1 [Psoralen] |  | 0.0116 | 182.8834 nmol/min/mg |  | 95.1% | 4.89% | 
CC(C)=CCc1cc2c(cc1O)oc(=O)c1c3ccc(O)cc3oc21 [Psoralidin] | 2.25% | 0.0119 | 187.9723 nmol/min/mg | 0.9775 |  |  | 
C[C@@H]1O[C@@H](Oc2c(-c3ccc(O)c(O)c3)oc3cc(O)cc(O)c3c2=O)[C@H](O)[C@H](O)[C@H]1O [Quercitrin] |  | 0.0114 | 180.0013 nmol/min/mg |  | 93.6% | 6.39% | 
O[C@H]1CCCc2ccccc21 [S-tetralol, S-(+)-1,2,3,4-tetrahydro-1-naphthol] |  |  |  |  |  |  | Kcat (AKR1C1; GST-AKR1C1, S-tetralol/NADP+): 0.2065 s⁻¹; Km (AKR1C1; GST-AKR1C1, S-tetralol/NADP+): 23.5 µM; Vmax (AKR1C1; GST-AKR1C1, S-tetralol/NADP+): 203.10 nmol/min/mg; catalytic efficiency (AKR1C1; recombinant AKR1C1): 0.53 min^-1/μM^-1; Kcat (recombinant AKR1C3): 0.553 s⁻¹; Km (recombinant AKR1C3): 851 µM; Vmax (recombinant AKR1C3): 543.90 nmol/min/mg; Kcat (recombinant AKR1C2): 0.0962 s⁻¹; Km (recombinant AKR1C2): 103 µM; Vmax (recombinant AKR1C2): 94.58 nmol/min/mg
C[C@H]1O[C@@H](O[C@H]2CC[C@@]3(C)[C@@H](CC[C@]4(C)[C@@H]3C=C[C@]35OC[C@@]6(CCC(C)(C)C[C@H]63)[C@@H](O)C[C@]54C)[C@]2(C)CO)[C@H](O)[C@@H](O[C@@H]2O[C@H](CO)[C@@H](O)[C@H](O)[C@H]2O)[C@H]1O [Saikosaponin A] |  | 0.0115 | 181.6675 nmol/min/mg |  | 94.5% | 5.53% | 
C[C@H]1O[C@@H](O[C@H]2CC[C@@]3(C)[C@@H](CC[C@]4(C)[C@@H]3C=C[C@]35OC[C@@]6(CCC(C)(C)C[C@H]63)[C@H](O)C[C@]54C)[C@]2(C)CO)[C@H](O)[C@@H](O[C@@H]2O[C@H](CO)[C@@H](O)[C@H](O)[C@H]2O)[C@H]1O [Saikosaponin D] | 5.41% | 0.0115 | 181.8927 nmol/min/mg | 0.9459 |  |  | 
CC(C)=CC[C@@H](O)C1=CC(=O)c2c(O)ccc(O)c2C1=O [Shikonin] |  | 0.0134 | 210.4443 nmol/min/mg |  | 109% | -9.44% | 
O=C([O-])C(O)Cc1ccc(O)c(O)c1.[Na+] (stereo not drawn) [Sodium Danshensu] | 14% | 0.0105 | 165.3652 nmol/min/mg | 0.86 |  |  | 
(+)-Catechin hydrate | -7.87% | 0.0132 | 207.427 nmol/min/mg | 1.0787 |  |  | 
Echinacoside | -7.12% | 0.0131 | 205.9859 nmol/min/mg | 1.0712 |  |  | 
Ginkgolide B | 34.68% | 0.007969 | 125.6001 nmol/min/mg | 0.6532 |  |  | 
Ginkgolide C | 31.9% | 0.008309 | 130.9591 nmol/min/mg | 0.681 |  |  | 
Hydroxysafflor yellow A | 27.82% |  | 138.7951 nmol/min/mg | 0.7218 |  |  | slope (AKR1C1): 0.008806
